Assay [1] has as its system phosphorylation of ERK, KRAS G12V in SW620. Kind of assay: pERK inhibition assay. In kind it is cell-based. The conditions noted are these: Homo sapiens, SW-620, 4 h, SW620 cells. The procedure, abridged:
(§1)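 Cells in RPMI-1640 with 10% FBS were plated overnight (30,000/well H358, 20,000 AGS, 30,000 SW620) and treated 4 h with compounds at 0.5% DMSO. After formaldehyde fixation and methanol permeabilization, pERK was detected by in-cell ELISA with HRP secondary and TMB (OD450); IC50 from 4-parameter fit.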

The subject of assay [2] is phosphorylation of ERK, KRAS G12D in AGS cells. Kind of assay: pERK inhibition assay. Particulars: Homo sapiens, AGS, 4 h. The assay is classed as cell-based. Put shortly: as §1
Assay [3] deals with phosphorylation of ERK, KRAS G12C in NCI-H358 cells. Nature of the assay: pERK inhibition assay. In kind it is cell-based. Particulars: Homo sapiens, NCI-H358, 4 h. The procedure, abridged:
as §1

Assay [4] has as its system NCI-H358 cells (KRAS G12C). Kind of assay: Cell viability assay (Cell Counting Kit-8, 3-day). The assay is classed as cell-based, human. Particulars: Homo sapiens, NCI-H358, 72 h, NCI-H358, 72 hrs incubation. Put shortly:
(§2)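 Read-out is CCK-8 absorbance (OD450 minus OD650, 2 hrs after reagent), reflecting NADPH after 72 hrs of compound exposure in 0.5% DMSO. Seeding density was 5,000 cells/well for NCI-H358 and 2,000 for AGS and SW620. IC50 derived by 4-parameter sigmoidal fitting.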
A general note: Tetrazolium dyes change colour on reduction, which living cells bring about.

A further assay relates to SW620 cells (KRAS G12V). Nature of the assay: Cell viability assay (Cell Counting Kit-8, 3-day). The assay is classed as cell-based, human. The conditions noted are these: Homo sapiens, SW-620; SW620, 72 hrs incubation. The procedure, abridged:
as §2

Another assay deals with AGS cells (KRAS G12D). Nature of the assay: Cell viability assay (Cell Counting Kit-8, 3-day). In kind it is cell-based, human. Particulars: Homo sapiens, 72 h, 72 hrs incubation. The procedure, abridged: as §2
The next assay has as its target KRAS G12C-BRAF complex (Homo sapiens (Human), UniProt P01116+P62937, G12C). Nature of the assay: KRAS-BRAF with CYPA (500 nM) interaction assay (TR-FRET, Example 136). The assay is classed as biochemical. Particulars: KRAS G12C-BRAF disruption. On the procedure:
In this example, TR-FRET was also used to measure the compound or compound-CYPA dependent disruption of the KRAS G12C-BRAF complex. This protocol was also used to measure disruption of KRAS G12D or KRAS G12V binding to BRAF by a compound of the invention, respectively. In assay buffer containing 25 mM HEPES PH=7.4 (4-(2-hydroxyethyl)-1-piperazineethanesulfonic acid, Thermo, 15630080), 0.002% Tween20, 0.1% BSA, 100 mM NaCl, 5 mM MgCl2, 10 μM GMPPNP (Guanosine 5′-[β,γ-imido]triphosphate trisodium salt hydrate, Sigma, G0635), […] 384-well assay plate at final concentrations of 50 nM, 6.25 nM and 1 nM, respectively. Compound was present in plate wells as a 16-point 3-fold dilution series starting at a final concentration of 10 μM and incubated for 3 hours. A mixture of MAb Anti-6His-XL665 (Cisbio, 61HISXLB) and Mab anti-GST-TB cryptate (Cisbio, 61GSTTLB) was then added at a final concentration of 6.67 nM and 0.21 nM, respectively, and the plate was incubated for an additional 1.5 hours. TR-FRET signal was read on a PHERstar FSX microplate reader (Ex320 nm, Em 665/615 nm). Compounds that facilitate disruption of the KRAS-BRAF complex were identified as those eliciting a decrease in the TR-FRET ratio relative to DMSO control wells.
On the technique in general: Time-resolved FRET reads energy transfer from a long-lived donor to a nearby acceptor.

In general, IC50 refers to the point on the concentration scale where inhibition reaches its midpoint. High values mean weaker potency, low ones greater potency.

Sequence of KRAS G12C-BRAF complex (P01116-2 other isoform, or with tags, fused parts or gaps G12C): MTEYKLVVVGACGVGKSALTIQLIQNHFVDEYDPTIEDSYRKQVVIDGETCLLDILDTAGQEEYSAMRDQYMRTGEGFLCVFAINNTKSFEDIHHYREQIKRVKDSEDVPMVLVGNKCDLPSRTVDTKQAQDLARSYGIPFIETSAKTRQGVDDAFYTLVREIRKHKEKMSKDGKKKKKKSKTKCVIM
Sequence of KRAS G12C-BRAF complex (P62937 whole entry): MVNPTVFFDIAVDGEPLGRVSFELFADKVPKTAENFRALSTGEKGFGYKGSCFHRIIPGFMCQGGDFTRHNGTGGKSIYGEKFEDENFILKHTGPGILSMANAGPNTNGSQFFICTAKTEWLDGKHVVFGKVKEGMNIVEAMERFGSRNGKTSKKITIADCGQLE

For `CO[C@@H](C)c1ncc(N2CCN(C)CC2)cc1-c1c2c3cc(cc4c3n1CCC4)-c1csc(n1)C[C@H](NC(=O)[C@@H]1C[C@H]1c1ncccn1)C(=O)N1CCC[C@H](N1)C(=O)OCC(C)(C)C2` (atropisomer, axis not shown) [Example 81, (1R,2R)-N-[(7S,13S)-20-[2-[(1S)-1-methoxyethyl]-5-(4-methylpiperazin-1-yl)-3-pyridyl]-17,17-dimethyl-8,14-dioxo-15-oxa-4-thia-9,21,30,31-tetrazahexacyclo[23.3.1.1^2,5.1^9,13.0^19,27.0^21,26]hentriaconta-1 (28),2,5 (31),19,25 (29),26-hexaen-7-yl]-2-pyrimidin-2-yl-cyclopropanecarboxamide], the IC50 in assay [1] is 1.2 nM; in assay [2] it was 6.5 nM; in assay [3], 1.6 nM; in assay [4] it was 5.3 nM; in the assay with SW620 cells (KRAS G12V), 0.8 nM; with AGS cells (KRAS G12D), 23.4 nM. At KRAS G12C-BRAF complex, this compound yielded an IC50 of 30.5 nM.
In the case of `CO[C@@H](C)c1ncc(N2CCN(CC(F)F)CC2)cc1-c1c2c3cc(cc4c3n1CCC4)-c1csc(n1)C[C@H](NC(=O)[C@H]1[C@H](C)[C@@H]1C)C(=O)N1CCC[C@H](N1)C(=O)OCC(C)(C)C2` (atropisomer, axis not shown) [Example 109, (1r,2R,3S)-N-[(7S,13S)-20-[5-[4-(2,2-difluoroethyl)piperazin-1-yl]-2-[(1S)-1-methoxyethyl]-3-pyridyl]-17,17-dimethyl-8,14-dioxo-15-oxa-4-thia-9,21,30,31-tetrazahexacyclo[23.3.1.1^2,5.1^9,13.0^19,27.0^21,26]hentriaconta-1 (28),2,5 (31), 19,25 (29),26-hexaen-7-yl]-2,3-dimethyl-cyclopropanecarboxamide], the half-inhibitory concentration (IC50) in assay [1] worked out at 0.3 nM; in assay [2], 4.1 nM; in assay [3], 0.9 nM; in assay [4], 2.8 nM; in the assay on SW620 cells (KRAS G12V), 0.6 nM; in the assay with AGS cells (KRAS G12D) it was 5.1 nM. This compound also registered an IC50 against KRAS G12C-BRAF complex of 6 nM.
As to `CO[C@@H](C)c1ncc(N2CCN(C)CC2)cc1-c1c2c3cc(cc4c3n1CCC4)-c1csc(n1)C[C@H](NC(=O)[C@H]1C[C@@H]1C)C(=O)N1CCC[C@H](N1)C(=O)OCC(C)(C)C2` (atropisomer, axis not shown; (M)) [Example 2, (1S,2S)-N-[(7S,13S)-(20M)-20-[2-[(1S)-1-methoxyethyl]-5-(4-methylpiperazin-1-yl)-3-pyridyl]-17,17-dimethyl-8,14-dioxo-15-oxa-4-thia-9,21,30,31-tetrazahexacyclo[23.3.1.1^2,5.1^9,13.0^19,27.0^21,26]hentriaconta-1 (28),2,5 (31), 19,25 (29),26-hexaen-7-yl]-2-methyl-cyclopropanecarboxamide], the concentration for half-maximal inhibition (IC50) in assay [1] amounted to 1.4 nM; in assay [2] it was 3 nM; in assay [3], 3.4 nM; in assay [4], 10.1 nM; with SW620 cells (KRAS G12V) it was 1.2 nM; in the assay on AGS cells (KRAS G12D), 29.9 nM. The IC50 on KRAS G12C-BRAF complex stood at 28.8 nM.
`CO[C@@H](C)c1ncc(N2CCN(C)CC2)cc1-c1c2c3cc(cc4c3n1CCC4)-c1csc(n1)C[C@H](NC(=O)C13C4CC1CC3C4)C(=O)N1CCC[C@H](N1)C(=O)OCC(C)(C)C2` (stereo partly drawn) [Example 72, N-[(7S,13S)-(20M)-20-[2-[(1S)-1-methoxyethyl]-5-(4-methylpiperazin-1-yl)-3-pyridyl]-17,17-dimethyl-8,14-dioxo-15-oxa-4-thia-9,21,30,31-tetrazahexacyclo[23.3.1.1^2,5.1^9,13.0^19,27.0^21,26]hentriaconta-1 (28),2,5 (31), 19,25 (29),26-hexaen-7-yl]tricyclo[3.1.1.0^3,6]heptane-6-carboxamide]: the IC50 in assay [1] amounted to 4.8 nM; in assay [2], 41.5 nM; in assay [3], 2.3 nM; at KRAS G12C-BRAF complex it was 31.5 nM.

These data come from patent publication US20240417410A1, “TRICYCLIC COMPOUNDS FOR THE TREATMENT OF CANCER” (Hoffmann-La Roche Inc., priority 2023, published 2024).
